Measurements reported in article PMC9094701, “Multiple-Allele MHC Class II Epitope Engineering by a Molecular Dynamics-Based Evolution Protocol” (Frontiers in Immunology, 2022).

Experiments:
IFNγ-producing cells = assay: IFNγ ELISpot of splenocytes from immunized mice; format: in vivo, C57BL/6 mice; conditions: for specific IFNγ-producing cells: C57BL/6 mice, two s.c. doses of 50 μg peptide with AddaVax, splenocytes 15 days after last dose, restimulated with the same peptide 18 h, ELISpot, mean; for Experimental rank: rank from the ex vivo experiments
[1] = system: MHC II alleles DRB1*01:01, DRB1*03:01, DRB1*04:01 and DRB1*15:01; assay: Multiple-allele REVEAL score; format: binding, human; conditions: average of the scores of each allele; Figure 4A
Method: The 18 designed candidates and the additional controls were synthesized and analysed using the ProImmune REVEAL® MHC-peptide binding assay to determine their level of binding to the MHC II alleles DRB1*01:01, DRB1*03:01, DRB1*04:01 and DRB1*15:01. A multiple-allele score was measured to evaluate if the peptides improved toward multiple alleles ( Figure 4A ). Of the 18 peptides, the peptide […] could not be synthesized by the Prospector PEPscreen® technology. […] None of the peptides, including the controls, were able to trigger a signal for the allele DRB1*03:01 (see Figure 4A ). […]
A gold-standard method of rate binding experiments against the MHC II alleles was performed with the Proimmune REVEAL® binding assay. The method uses antibody-labelled peptides that emit a signal if native conformations of the complexes are detected. […]
For the single-allele binding optimization phase, 17 peptides selected were assayed together with the controls against the DRB1*01:01 allele. For the multiple-allele engineering phase, 18 P. vivax engineered epitopes were evaluated for the MHC II alleles DRB1*01:01, DRB1*03:01, DRB1*04:01 and DRB1*15:01. A multiple-allele score was calculated by averaging the scores of each allele, and by weighting each allele based on the their frequencies in the world population. […]

[2] = molecular target: MHC II (HLA) allele DRB1*01:01 (Homo sapiens, UniProt P01903+P01911, A100R/D57E/F55L/F60I/F76Y/I96L/L162R/M171V/P40L/Q125E/R42F/V115G/Y59C); assay: ProImmune REVEAL MHC-peptide binding assay; conditions: score 0-100 by comparison with a control T-cell epitope, 0 and 24 hours, Figure 2E
[3] = Influenza sequences and PADRE, Table S11

Sequence | specific IFNγ-producing cells (IFNγ-producing cells) | Experimental rank (IFNγ-producing cells; P. vivax sequences, Table S10) | Multiple-allele REVEAL score, in words [1] | Experimental rank (IFNγ-producing cells; [3]) | REVEAL binding score, performance in words [2]
DYDVVYWKPLAGIYK | 228 SFU/10^6 cells | 2 | – | – | –
DYTVVYLKPLAGYDH | 127 SFU/10^6 cells | 4 | superior to the PADRE epitope | – | –
VYDVVYLKPLAGCYK | 145 SFU/10^6 cells | 3 | – | – | –
YPKYVKQNTLKLAT [Influenza A virus peptide from the Hemagglutinin antigen, reference compound] | 463 SFU/10^6 cells | – | – | 3 | –
YSKYKKQNTLKAAT | 473 SFU/10^6 cells | – | – | 2 | much superior to the original peptide sequence, and even to the PADRE control
AKFVAAWTLKAAA [reference compound] | – | – | – | 1 | –
DYTVVYLKPLAGYDN | 54 SFU/10^6 cells | 5 | – | – | –
DYDVVYLKPLAGMYK [reference compound] | 295 SFU/10^6 cells | 1 | – | – | –
